Assay results as given in the OligoGym collection.
HELM strings list units from the 5' end as sugar, base in round brackets, then linkage (d deoxyribose, r ribose, m 2'-O-methyl, p phosphodiester). Strings are as the collection lists them; they lack the last nucleoside at the 3' end of the tested compound. [moe] = 2'-O-(2-methoxyethyl) (MOE); [sp] = phosphorothioate linkage; [m5C] = 5-methylcytosine

Target: UBE3A-ATS
Experiment: mouse, dose not given
Conditions: ASO

Substance: RNA1{[moe](T)[sp].[moe](T)p.[moe](T)p.[moe](T)p.[moe](A)p.d(T)[sp].d(T)[sp].d(G)[sp].d(G)[sp].d(T)[sp].d([m5C])[sp].d(A)[sp].d(T)[sp].d([m5C])[sp].d(T)[sp].[moe]([m5C])p.[moe](G)p.[moe](G)[sp].[moe](G)}$$$$ (last 3' nucleoside missing)
- 3 h FOB score: 2.3 score 0-7

Substance: RNA1{[moe](T)[sp].[moe](T)p.[moe](T)p.[moe](T)p.[moe](T)p.[moe]([m5C])p.d([m5C])[sp].d(A)[sp].d(T)[sp].d(T)[sp].d(T)[sp].d(T)[sp].d(T)[sp].d([m5C])[sp].d(T)[sp].d([m5C])[sp].[moe](T)p.[moe](T)[sp].[moe](A)}$$$$ (last 3' nucleoside missing)
- 3 h FOB score: 1 score 0-7

Substance: RNA1{[moe](T)[sp].[moe](T)p.[moe](T)p.[moe](T)p.[moe](T)p.d([m5C])[sp].d([m5C])[sp].d(A)[sp].d(T)[sp].d(T)[sp].d(T)[sp].d(T)[sp].d(T)[sp].d([m5C])[sp].d(T)[sp].[moe]([m5C])p.[moe](T)p.[moe](T)[sp].[moe](A)}$$$$ (last 3' nucleoside missing)
- 3 h FOB score: 1.3 score 0-7

Substance: RNA1{[moe](T)[sp].[moe](T)p.[moe](T)p.[moe](T)p.d(T)[sp].d([m5C])[sp].d([m5C])[sp].d(A)[sp].d(T)[sp].d(T)[sp].d(T)[sp].d(T)[sp].d(T)[sp].d([m5C])[sp].[moe](T)p.[moe]([m5C])p.[moe](T)p.[moe](T)[sp].[moe](A)}$$$$ (last 3' nucleoside missing)
- 3 h FOB score: 1 score 0-7

Substance: RNA1{[moe](T)[sp].[moe](T)p.[moe](T)p.[moe]([m5C])p.[moe](A)p.d(T)[sp].d([m5C])[sp].d(A)[sp].d(G)[sp].d(T)[sp].d(T)[sp].d(A)[sp].d(G)[sp].d(T)[sp].d([m5C])[sp].[moe](A)p.[moe](G)p.[moe](G)[sp].[moe](T)}$$$$ (last 3' nucleoside missing)
- 3 h FOB score: 2 score 0-7

Substance: RNA1{[moe](T)[sp].[moe](T)p.[moe]([m5C])p.[moe](A)[sp].d([m5C])[sp].d([m5C])[sp].d(A)[sp].d(T)[sp].d(T)[sp].d(T)[sp].d(T)[sp].d(G)[sp].[moe](A)p.[moe]([m5C])p.[moe]([m5C])p.[moe](T)[sp].[moe](T)}$$$$ (last 3' nucleoside missing)
- 3 h FOB score: 0 score 0-7

Substance: RNA1{[moe](T)[sp].[moe](T)p.[moe]([m5C])p.[moe](A)p.[moe](T)p.d([m5C])[sp].d(A)[sp].d(G)[sp].d(T)[sp].d(T)[sp].d(A)[sp].d(G)[sp].d(T)[sp].d([m5C])[sp].d(A)[sp].[moe](G)p.[moe](G)p.[moe](T)[sp].[moe](T)}$$$$ (last 3' nucleoside missing)
- 3 h FOB score: 4 score 0-7

Substance: RNA1{[moe](T)[sp].[moe](T)p.[moe]([m5C])p.[moe](A)p.[moe]([m5C])p.[moe]([m5C])p.d(A)[sp].d(T)[sp].d(T)[sp].d(T)[sp].d(T)[sp].d(G)[sp].d(A)[sp].d([m5C])[sp].d([m5C])[sp].d(T)[sp].[moe](T)p.[moe]([m5C])[sp].[moe](T)}$$$$ (last 3' nucleoside missing)
- 3 h FOB score: 0 score 0-7

Substance: RNA1{[moe](T)[sp].[moe](T)p.[moe]([m5C])p.[moe](A)p.[moe]([m5C])p.d([m5C])[sp].d(A)[sp].d(T)[sp].d(T)[sp].d(T)[sp].d(T)[sp].d(G)[sp].d(A)[sp].d([m5C])[sp].d([m5C])[sp].[moe](T)p.[moe](T)p.[moe]([m5C])[sp].[moe](T)}$$$$ (last 3' nucleoside missing)
- 3 h FOB score: 1 score 0-7

Substance: RNA1{[moe](T)[sp].[moe](T)p.[moe]([m5C])p.[moe](A)p.d([m5C])[sp].d([m5C])[sp].d(A)[sp].d(T)[sp].d(T)[sp].d(T)[sp].d(T)[sp].d(G)[sp].d(A)[sp].d([m5C])[sp].[moe]([m5C])p.[moe](T)p.[moe](T)p.[moe]([m5C])[sp].[moe](T)}$$$$ (last 3' nucleoside missing)
- 3 h FOB score: 1 score 0-7

Substance: RNA1{[moe](T)[sp].[moe](T)p.[moe]([m5C])p.[moe](T)p.[moe](G)p.d(G)[sp].d(A)[sp].d(A)[sp].d(T)[sp].d([m5C])[sp].d(T)[sp].d(T)[sp].d(G)[sp].d(T)[sp].d(A)[sp].[moe](G)p.[moe](A)p.[moe](G)[sp].[moe](G)}$$$$ (last 3' nucleoside missing)
- 3 h FOB score: 3 score 0-7

Substance: RNA1{[moe](T)[sp].[moe](T)p.[moe]([m5C])p.[moe](T)p.[moe](T)p.d(G)[sp].d([m5C])[sp].d(T)[sp].d(G)[sp].d(A)[sp].d(T)[sp].d([m5C])[sp].d(A)[sp].d([m5C])[sp].d(A)[sp].[moe](T)p.[moe](T)p.[moe](A)[sp].[moe]([m5C])}$$$$ (last 3' nucleoside missing)
- 3 h FOB score: 0 score 0-7

Substance: RNA1{[moe](T)[sp].[moe](T)p.[moe]([m5C])p.[moe](T)p.[moe]([m5C])p.d(A)[sp].d([m5C])[sp].d([m5C])[sp].d(T)[sp].d(A)[sp].d(G)[sp].d(G)[sp].d([m5C])[sp].d(T)[sp].d(G)[sp].[moe](G)p.[moe](G)p.[moe]([m5C])[sp].[moe]([m5C])}$$$$ (last 3' nucleoside missing)
- 3 h FOB score: 2.8 score 0-7

Substance: RNA1{[moe](T)[sp].[moe](T)p.[moe]([m5C])p.[moe]([m5C])p.[moe]([m5C])p.d(A)[sp].d(T)[sp].d(T)[sp].d([m5C])[sp].d(A)[sp].d(G)[sp].d([m5C])[sp].d(A)[sp].d([m5C])[sp].d(T)[sp].[moe](T)p.[moe](A)p.[moe](G)[sp].[moe](G)}$$$$ (last 3' nucleoside missing)
- 3 h FOB score: 3.3 score 0-7

Substance: RNA1{[moe](T)[sp].[moe]([m5C])[sp].[moe]([m5C])[sp].[moe](T)[sp].[moe](T)[sp].d(T)[sp].d(A)[sp].d(G)[sp].d([m5C])[sp].d(A)[sp].d(T)[sp].d(T)[sp].d(T)[sp].d([m5C])[sp].d(T)[sp].[moe](A)[sp].[moe](T)[sp].[moe](T)[sp].[moe](A)}$$$$ (last 3' nucleoside missing)
- 3 h FOB score: 6.5 score 0-7

Substance: RNA1{[moe](T)[sp].[moe]([m5C])p.[moe](A)p.[moe](A)[sp].d([m5C])[sp].d([m5C])[sp].d(A)[sp].d(A)[sp].d(T)[sp].d(T)[sp].d(T)[sp].d(G)[sp].[moe]([m5C])p.[moe](T)p.[moe](A)p.[moe](T)[sp].[moe](T)}$$$$ (last 3' nucleoside missing)
- 3 h FOB score: 0.7 score 0-7

Substance: RNA1{[moe](T)[sp].[moe]([m5C])p.[moe](A)p.[moe](A)p.[moe]([m5C])[sp].d([m5C])[sp].d(A)[sp].d(A)[sp].d(T)[sp].d(T)[sp].d(T)[sp].d(G)[sp].d([m5C])[sp].[moe](T)p.[moe](A)p.[moe](T)[sp].[moe](T)}$$$$ (last 3' nucleoside missing)
- 3 h FOB score: 3 score 0-7

Substance: RNA1{[moe](T)[sp].[moe]([m5C])p.[moe](A)p.[moe](A)p.[moe]([m5C])p.[moe]([m5C])[sp].d(A)[sp].d(A)[sp].d(T)[sp].d(T)[sp].d(T)[sp].d(G)[sp].d([m5C])[sp].d(T)[sp].[moe](A)p.[moe](T)[sp].[moe](T)}$$$$ (last 3' nucleoside missing)
- 3 h FOB score: 3 score 0-7

Substance: RNA1{[moe](T)[sp].[moe]([m5C])p.[moe](A)p.[moe](A)p.[moe]([m5C])p.d(T)[sp].d(A)[sp].d(T)[sp].d(T)[sp].d(T)[sp].d([m5C])[sp].d(T)[sp].d(A)[sp].d(T)[sp].d([m5C])[sp].[moe](A)p.[moe](A)p.[moe](G)[sp].[moe](G)}$$$$ (last 3' nucleoside missing)
- 3 h FOB score: 0 score 0-7

Substance: RNA1{[moe](T)[sp].[moe]([m5C])p.[moe](A)p.[moe](A)p.[moe]([m5C])p.d([m5C])[sp].d(A)[sp].d(A)[sp].d(T)[sp].d(T)[sp].d(T)[sp].d(G)[sp].d([m5C])[sp].d(T)[sp].d(A)[sp].[moe](T)p.[moe](T)p.[moe]([m5C])[sp].[moe](A)}$$$$ (last 3' nucleoside missing)
- 3 h FOB score: 2 score 0-7

Substance: RNA1{[moe](T)[sp].[moe]([m5C])p.[moe](A)p.[moe](G)[sp].d(T)[sp].d(T)[sp].d(A)[sp].d(G)[sp].d(G)[sp].d(T)[sp].d(T)[sp].d(A)[sp].[moe](G)p.[moe](T)p.[moe](G)p.[moe]([m5C])[sp].[moe](A)}$$$$ (last 3' nucleoside missing)
- 3 h FOB score: 2.3 score 0-7

Substance: RNA1{[moe](T)[sp].[moe]([m5C])p.[moe](A)p.[moe](G)p.[moe](A)p.d(T)[sp].d(T)[sp].d([m5C])[sp].d([m5C])[sp].d(T)[sp].d(A)[sp].d(A)[sp].d(A)[sp].d(T)[sp].d(A)[sp].[moe]([m5C])p.[moe](G)p.[moe]([m5C])[sp].[moe](A)}$$$$ (last 3' nucleoside missing)
- 3 h FOB score: 0 score 0-7

Substance: RNA1{[moe](T)[sp].[moe]([m5C])p.[moe](A)p.[moe](G)p.[moe](T)[sp].d(T)[sp].d(A)[sp].d(G)[sp].d(G)[sp].d(T)[sp].d(T)[sp].d(A)[sp].d(G)[sp].[moe](T)p.[moe](G)p.[moe]([m5C])[sp].[moe](A)}$$$$ (last 3' nucleoside missing)
- 3 h FOB score: 4.3 score 0-7

Substance: RNA1{[moe](T)[sp].[moe]([m5C])p.[moe](A)p.[moe](G)p.[moe](T)p.[moe](T)[sp].d(A)[sp].d(G)[sp].d(G)[sp].d(T)[sp].d(T)[sp].d(A)[sp].d(G)[sp].d(T)[sp].[moe](G)p.[moe]([m5C])[sp].[moe](A)}$$$$ (last 3' nucleoside missing)
- 3 h FOB score: 3 score 0-7

Substance: RNA1{[moe](T)[sp].[moe]([m5C])p.[moe](A)p.[moe](G)p.[moe](T)p.[moe](T)p.d(A)[sp].d(G)[sp].d(G)[sp].d(T)[sp].d(T)[sp].d(A)[sp].d(G)[sp].d(T)[sp].d(G)[sp].d([m5C])[sp].[moe](A)p.[moe]([m5C])[sp].[moe](A)}$$$$ (last 3' nucleoside missing)
- 3 h FOB score: 4.8 score 0-7

Substance: RNA1{[moe](T)[sp].[moe]([m5C])p.[moe](A)p.[moe](G)p.[moe](T)p.d(T)[sp].d(A)[sp].d(G)[sp].d(G)[sp].d(T)[sp].d(T)[sp].d(A)[sp].d(G)[sp].d(T)[sp].d(G)[sp].[moe]([m5C])p.[moe](A)p.[moe]([m5C])[sp].[moe](A)}$$$$ (last 3' nucleoside missing)
- 3 h FOB score: 5 score 0-7

Substance: RNA1{[moe](T)[sp].[moe]([m5C])p.[moe](A)p.[moe](G)p.[moe](T)p.d(T)[sp].d(A)[sp].d(G)[sp].d(T)[sp].d([m5C])[sp].d(A)[sp].d(G)[sp].d(G)[sp].d(T)[sp].d(T)[sp].[moe](A)p.[moe](G)p.[moe](G)[sp].[moe](G)}$$$$ (last 3' nucleoside missing)
- 3 h FOB score: 4.2 score 0-7
